Reference: patent US20130269058A1, “PLANTS RESISTANT TO FUNGAL PATHOGENS AND METHODS FOR PRODUCTION THEREOF” (GENOPLANTE-VALOR, priority 2010, published 2013)

Key:
[1] = tested on: PR5 and PDX223 classical defense genes; experiment: Chitin sprayed on healthy rice plants; defense gene expression by QRT-PCR normalized by actin; type: in vivo, rice (Oryza sativa L., cultivar Nipponbare); details: chitin fragments sprayed on healthy rice plants; timing relative to WAK91 induction
Protocol: (§1) FIG. 2: Chitin induces WAK91 expression. Chitin fragments (two concentrations) were sprayed on healthy rice plants. Chitin alone is sufficient to induce WAK91 (up to 4×) in entire plants after 15 minutes. The PR5 and PDX223 classical defense genes are induced later. (A) The expression value of the WAK91, PR5 and PDX223 gene expression (normalized by actin) was measured at the indicated time after treatment. (B) The expression value after chitin treatment was divided by the expression value in untreated plants and the ratio was log transformed.
(§2) Gene expression was performed using Quantitative RT-PCR as described in Vergne et al (2007). For RT-QPCR applications, frozen tissue were ground in liquid nitrogen. Approximately 500 μl of powder was then treated with 1 ml of TRIZOL supplied by Invitrogen, vortexed for 30 s and incubated at room temperature for 15 minutes. […] Two microlitres of cDNA (dilution 1/10) were then used for quantitative RT-PCR. Quantitative RT-PCR mixtures contained PCR buffer, dNTP (0.25 mM), MgCl2 (2.5 mM), forward and reverse primers ([…]), 1 U of HotGoldStar polymerase and SYBR Green PCR mix as per the manufacturer's recommendations (Eurogentec, Seraing, Belgium). […] The quantitative RT-PCR (QRT-PCR) reactions were performed using a MX3000P machine (Stratagene) and data were extracted using the MX3000P software. […]

[2] = tested on: WAK91 gene expression; experiment: Chitin sprayed on healthy rice plants; WAK91 expression by QRT-PCR normalized by actin; type: in vivo, rice (Oryza sativa L., cultivar Nipponbare)
Protocol: as §1, §2

Substance: chitin
- induction of PR5 and PDX223 defense genes (in words) [1]: induced later
- induction of WAK91 expression ([2]; chitin fragments (two concentrations) sprayed on healthy rice plants, entire plants, after 15 minutes, versus untreated plants): up to 4 ×
- WAK91 induction (in words) ([2]; chitin used as described in Miya et al (2007), FIG. 2): sufficient to cause WAK91 induction
